Data as given in patent US9273285B1, “Shorter colony-forming cell assay” (STEMCELL TECHNOLOGIES INC., priority 2008, dated 2016).

System: Human CB mononuclear cells
Test: Hematopoietic colony-forming cell (CFC) assay in methylcellulose-based MethoCult media
Design: key to Size, Morphology ranking: Ranking on the basis of colony size and morphology: 1 is best; 4 is worst
Conditions: for Colony numbers as percentage of colony numbers in medium without extra cytokines, Average: average of experiments
Method: Frozen ficolled cord blood mononuclear cells were thawed, nucleated cells were counted by microscopy using a hemacytometer after dilution in 3% acetic acid to lyse mature erythrocytes. The cells were diluted with Iscove's MDM to 10-fold the desired cell concentration. 0.4 mL of the cell suspensions were added into an aliquot of test MethoCult® medium (4 mL) and mixed by vortexing. 1.1 mL of each cell/medium mixture was dispensed into triplicate 35 mm culture dishes using 3 mL syringes with blunt end needles, with 1.1 mL of medium per dish. All cultures were incubated for 4, 7, 10 or the standard 14 days at 37° C., 5% CO2, 100% humidity. Colonies were enumerated and classified by bright-field microscopy into the following categories based on size and morphology: CFU-E, BFU-E, CFU-GM, CFU-GEMM (StemCell Technologies, Colony Atlas). […]
Methocult® H4435 medium, which contains the 6 cytokines IL-3, IL-6, SCF, GM-CSF, G-CSF and EPO, was supplemented with Zinc Sulphate at final concentrations 2, 10 and 20 μM and 4 different CB samples were cultured for 7 and 14 days as described in Example 1. […] In one experiment, CFU-GM colonies were larger in the presence of zinc, whereas BFU-E colony size was unchanged.
To examine if adding extra cytokines can further increase colony growth, culture medium as in Example 5 was supplemented with FL, TPO or both. Cultures were set up using Cord Blood cells and colonies were counted after 7 and 14 days. […] In three of the four experiments colony size and morphology after 14 days were very similar whether or not TPO and/or FL were present in the medium. In one experiment (Exp 4 in Table 2) colonies were slightly larger in cultures without TPO and FL compared to cultures with TPO and FL. […]

[1] = Exp. 1, 7 days, added to MethoCult medium with IL-3, IL-6, G-CSF, GM-CSF, SCF, EPO, cord blood

| Molecule | Colony numbers as percentage of colony numbers in medium without extra cytokines (Exp. 1, 7 days) [%] | Size, Morphology ranking (Exp. 1, 7 days) | Colony numbers per 10^5 cells plated [1] [per 10^5 cells plated] | Colony numbers as percentage of colony numbers in medium without extra cytokines (Exp. 1, 14 days) [%] | Colony numbers per 10^5 cells plated (Exp. 1, 14 days) [per 10^5 cells plated] | Size, Morphology ranking (Exp. 1, 14 days) | Colony numbers as percentage of colony numbers in medium without extra cytokines (Exp. 2, 7 days) [%] | Colony numbers per 10^5 cells plated (Exp. 2, 7 days) [per 10^5 cells plated] | Size, Morphology ranking (Exp. 2, 7 days) | Colony numbers as percentage of colony numbers in medium without extra cytokines (Exp. 2, 14 days) [%] | Colony numbers per 10^5 cells plated (Exp. 2, 14 days) [per 10^5 cells plated] | Size, Morphology ranking (Exp. 2, 14 days) | Colony numbers as percentage of colony numbers in medium without extra cytokines (Exp. 3, 7 days) [%] | Colony numbers per 10^5 cells plated (Exp. 3, 7 days) [per 10^5 cells plated] | Size, Morphology ranking (Exp. 3, 7 days) | Colony numbers as percentage of colony numbers in medium without extra cytokines (Exp. 3, 14 days) [%] | Colony numbers per 10^5 cells plated (Exp. 3, 14 days) [per 10^5 cells plated] | Size, Morphology ranking (Exp. 3, 14 days) | Colony numbers as percentage of colony numbers in medium without extra cytokines, Average (7 days) [%] | Colony numbers as percentage of colony numbers in medium without extra cytokines, Average (14 days) [%] | also measured |
| --- | --- | --- | --- | --- | --- | --- | --- | --- | --- | --- | --- | --- | --- | --- | --- | --- | --- | --- | --- | --- | --- |
| O=S(=O)([O-])[O-].[Zn+2] [Zinc Sulphate] | – | – | – | – | – | – | – | – | – | – | – | – | – | – | – | – | – | – | – | – | total colony numbers on day 7 and 14 relative to media containing no Zinc, or 2 μM of Zinc (10 or 20 μM in Methocult H4435, 4 CB samples (FIG. 4)): increased; Effect on colony size after 14 days of culture (in Methocult H4435, 3 of the 4 experiments): no effects of zinc on colony size was observed; Colony size and morphology on day 7 compared to zinc-free medium (in Methocult H4435, particularly at 10 and 20 uM, three of 4 experiments): the colonies were larger, and more evenly spread out |
| Thrombopoietin [TPO] | 78 | 2 | 210 | 93 | 287 | 1 | 102 | 393 | 1 | 102 | 480 | 1 | 107 | 317 | 2 | 107 | 360 | 1 | 95 | 101 | – |
| FLT-3 Ligand (protein, UniProt P49771 27-235, looked up, cytokine added to the culture medium) Fms-related tyrosine kinase 3 …: TQDCSFQHSPISSDFAVKIRELSDYLLQDYPVTVASNLQDEELCGGLWRLVLAQRWMERLKTVAGSKMQGLLERVNTEIHFVTKCAFQPPPSCLRFVQTNISRLLQETSEQLVALKPWITRQNFSRCLELQCQPDSSTLPPPWSPRPLEATAPTAPQPPLLLLLLLPVGLLLLAAAWCLHWQRTRRRTPRPGEQVPPVPSPQDLLLVEH | 99 | 2 | 267 | 110 | 337 | 1 | 107 | 413 | 2 | 99 | 463 | 1 | 99 | 293 | 3 | 94 | 317 | 1 | 101 | 101 | – |
